According to patent US11806342B2, “Diiodohydroxyquinoline for the treatment of clostridium difficile infection” (Purdue Research Foundation, priority 2019, dated 2023):
In brackets after ≈: the same amount, converted by molar mass.

Tests used:
Format in all cases: cell-based, Clostridium difficile
C. difficile ATCC 43255 [1] = assay: Initial screening of antiparasitic drugs, broth microdilution MIC; conditions: Clostridioides difficile, ATCC43255; initial screening, C. difficile ATCC 43255; read-out: MIC
Protocol: C. difficile strains were grown anaerobically on brain heart infusion supplemented (BHIS) agar plates at 37° C. for 48 hours. Afterwards, a bacterial solution equivalent to 0.5 McFarland standard was prepared and diluted in (BHIS) broth to achieve a bacterial concentration of about 5×10^5 CFU/mL. Drugs were added and serially diluted along the plates. Plates were then, incubated anaerobically at 37° C. for 48 hours. MICs reported in Table (1) are the minimum concentrations of the drugs that could completely suppress the visual growth of bacteria.

C. difficile ATCC 1801 = assay: MIC and MBC, broth microdilution; conditions: Clostridioides difficile, ATCC1801, C. difficile ATCC 1801
Protocol: (§1) Antibacterial activity of Diiodohydroxyquinoline against a wide panel of Clostridium difficile strains. […] MIC50 and MIC90 are the minimum concentration of each agent that inhibited growth of 50% and 90% of the tested isolates, respectively. The minimum bactericidal concentration (MBC) of these drugs was tested by plating 5 μL from wells with no growth onto BHIS agar plates. The MBC was categorized as the lowest concentration that reduced bacterial growth by 99.9% MIC50 and MIC90 are the minimum concentration of each agent that inhibited the growth of 50% and 90% of the tested isolates, respectively. The minimum bactericidal concentration (MBC) of these drugs was tested by plating 5 μL from wells with no growth onto BHIS agar plates. The MBC was categorized as the lowest concentration that reduced bacterial growth by 99.9% [29-31].

C. difficile ATCC 43255 [2] = assay: MIC and MBC, broth microdilution; conditions: Clostridioides difficile, ATCC43255, C. difficile ATCC 43255
Protocol: as §1

C. difficile HM-745 = assay: MIC and MBC, broth microdilution; conditions: Clostridioides difficile, HM745, C. difficile HM-745
Protocol: as §1

C. difficile I10 = assay: MIC and MBC, broth microdilution; conditions: Clostridioides difficile, C. difficile I10
Protocol: as §1

C. difficile I11 = assay: MIC and MBC, broth microdilution; conditions: Clostridioides difficile, C. difficile I11
Protocol: as §1

C. difficile I13 = assay: MIC and MBC, broth microdilution; conditions: Clostridioides difficile, C. difficile I13
Protocol: as §1

C. difficile I6 = assay: MIC and MBC, broth microdilution; conditions: Clostridioides difficile, C. difficile I6
Protocol: as §1

C. difficile I9 [3] = assay: MIC and MBC, broth microdilution; conditions: Clostridioides difficile, C. difficile I9
Protocol: as §1

C. difficile NR-49278 = assay: MIC and MBC, broth microdilution; conditions: Clostridioides difficile, NR49278, C. difficile NR-49278
Protocol: as §1

C. difficile NR-49285 = assay: MIC and MBC, broth microdilution; conditions: Clostridioides difficile, NR49285, C. difficile NR-49285
Protocol: as §1

C. difficile NR-49288 = assay: MIC and MBC, broth microdilution; conditions: Clostridioides difficile, NR49288, C. difficile NR-49288
Protocol: as §1

C. difficile P15 = assay: MIC and MBC, broth microdilution; conditions: Clostridioides difficile, C. difficile P15
Protocol: as §1

C. difficile P19 = assay: MIC and MBC, broth microdilution; conditions: Clostridioides difficile, C. difficile P19
Protocol: as §1

C. difficile P20 = assay: MIC and MBC, broth microdilution; conditions: Clostridioides difficile, C. difficile P20
Protocol: as §1

C. difficile P30 = assay: MIC and MBC, broth microdilution; conditions: Clostridioides difficile, C. difficile P30
Protocol: as §1

C. difficile P3 = assay: MIC and MBC, broth microdilution; conditions: Clostridioides difficile, C. difficile P3
Protocol: as §1

C. difficile P5 = assay: MIC and MBC, broth microdilution; conditions: Clostridioides difficile, C. difficile P5
Protocol: as §1

C. difficile P6 = assay: MIC and MBC, broth microdilution; conditions: Clostridioides difficile, C. difficile P6
Protocol: as §1

[4] = tested on: C. difficile ATCC BAA-1870; assay: Time kill kinetics assay; conditions: C. difficile ATCC BAA-1870, 5×MIC, 37° C.
Protocol: (§2) Time kill kinetics assay. In order to examine the killing kinetics of DIHQ, a time kill kinetics assay was performed against Clostridium difficile ATCC BAA 1870 and C. difficile NR-49277 as described previously. […] Aliquots were collected from each treatment after 0, 4, 6, 8, 12, and 24 hours of incubation at 37° C. and subsequently serially diluted and plated for viable CFU/mL determination.

C. difficile NR-49277 = assay: Time kill kinetics assay; conditions: C. difficile NR-49277, 5×MIC, 37° C.
Protocol: as §2

C. difficile ATCC 43255 [5] = assay: Checkerboard assay, DIHQ with metronidazole or vancomycin
Protocol: (§3) The fractional inhibitory concentration index (ΣFIC) was calculated for each interaction. Interactions where the ΣFIC index was ≤0.5 were categorized as synergistic (SYN).

[6] = tested on: C. difficile ATCC BAA-1870; assay: as above
Protocol: as §3

C. difficile I9 [7] = assay: as above
Protocol: as §3

[8] = DIHQ with metronidazole, C. difficile ATCC 43255
[9] = DIHQ with vancomycin, C. difficile ATCC 43255
[10] = DIHQ with metronidazole, C. difficile ATCC BAA-1870
[11] = DIHQ with vancomycin, C. difficile ATCC BAA-1870
[12] = DIHQ with metronidazole, C. difficile I9
[13] = DIHQ with vancomycin, C. difficile I9

Oc1c(I)cc(I)c2cccnc12 [DIHQ, 5,7-diiodoquinolin-8-ol]
MIC (C. difficile ATCC 43255 [1]): 0.5 µg/mL (≈ 1.26 µM)
MBC (C. difficile ATCC 1801; read-out: MBC): 4 µg/mL (≈ 10.1 µM)
MIC (C. difficile ATCC 1801; read-out: MIC): 2 µg/mL (≈ 5.04 µM)
MBC (C. difficile ATCC 43255 [2]; read-out: MBC): 0.5 µg/mL (≈ 1.26 µM)
MIC (C. difficile ATCC 43255 [2]; read-out: MIC): 0.5 µg/mL (≈ 1.26 µM)
MBC (C. difficile HM-745; read-out: MBC): 1 µg/mL (≈ 2.52 µM)
MIC (C. difficile HM-745; read-out: MIC): 1 µg/mL (≈ 2.52 µM)
MBC (C. difficile I10; read-out: MBC): 1 µg/mL (≈ 2.52 µM)
MIC (C. difficile I10; read-out: MIC): 1 µg/mL (≈ 2.52 µM)
MBC (C. difficile I11; read-out: MBC): 1 µg/mL (≈ 2.52 µM)
MIC (C. difficile I11; read-out: MIC): 1 µg/mL (≈ 2.52 µM)
MBC (C. difficile I13; read-out: MBC): 2 µg/mL (≈ 5.04 µM)
MIC (C. difficile I13; read-out: MIC): 2 µg/mL (≈ 5.04 µM)
MBC (C. difficile I6; read-out: MBC): 0.5 µg/mL (≈ 1.26 µM)
MIC (C. difficile I6; read-out: MIC): 0.5 µg/mL (≈ 1.26 µM)
MBC (C. difficile I9 [3]; read-out: MBC): 0.06 µg/mL (≈ 0.151 µM)
MIC (C. difficile I9 [3]; read-out: MIC): 0.06 µg/mL (≈ 0.151 µM)
MBC (C. difficile NR-49278; read-out: MBC): 0.5 µg/mL (≈ 1.26 µM)
MIC (C. difficile NR-49278; read-out: MIC): 0.25 µg/mL (≈ 0.63 µM)
MBC (C. difficile NR-49285; read-out: MBC): 1 µg/mL (≈ 2.52 µM)
MIC (C. difficile NR-49285; read-out: MIC): 1 µg/mL (≈ 2.52 µM)
MBC (C. difficile NR-49288; read-out: MBC): 0.5 µg/mL (≈ 1.26 µM)
MIC (C. difficile NR-49288; read-out: MIC): 0.25 µg/mL (≈ 0.63 µM)
MBC (C. difficile P15; read-out: MBC): 1 µg/mL (≈ 2.52 µM)
MIC (C. difficile P15; read-out: MIC): 1 µg/mL (≈ 2.52 µM)
MBC (C. difficile P19; read-out: MBC): 1 µg/mL (≈ 2.52 µM)
MIC (C. difficile P19; read-out: MIC): 0.5 µg/mL (≈ 1.26 µM)
MBC (C. difficile P20; read-out: MBC): 1 µg/mL (≈ 2.52 µM)
MIC (C. difficile P20; read-out: MIC): 1 µg/mL (≈ 2.52 µM)
MBC (C. difficile P30; read-out: MBC): 0.5 µg/mL (≈ 1.26 µM)
MIC (C. difficile P30; read-out: MIC): 0.5 µg/mL (≈ 1.26 µM)
MBC (C. difficile P3; read-out: MBC): 2 µg/mL (≈ 5.04 µM)
MIC (C. difficile P3; read-out: MIC): 2 µg/mL (≈ 5.04 µM)
MBC (C. difficile P5; read-out: MBC): 4 µg/mL (≈ 10.1 µM)
MIC (C. difficile P5; read-out: MIC): 2 µg/mL (≈ 5.04 µM)
MBC (C. difficile P6; read-out: MBC): 0.5 µg/mL (≈ 1.26 µM)
MIC (C. difficile P6; read-out: MIC): 0.5 µg/mL (≈ 1.26 µM)
time required to generate a 3-log10 reduction in CFU/mL [4]: six
time to complete eradication of the bacteria (below the detection limit, 100 CFU/mL) [4]: ≤ 24 h
time required to generate a 3-log10 reduction in CFU/mL (C. difficile NR-49277): 4 hours
time to complete eradication of the bacteria (below the detection limit, 100 CFU/mL) (C. difficile NR-49277): ≤ 6 h
MIC of DIHQ combined with metronidazole (C. difficile ATCC 43255 [5]; C. difficile ATCC 43255): 0.25 µg/mL
MIC of DIHQ combined with vancomycin (C. difficile ATCC 43255 [5]; C. difficile ATCC 43255): 0.125 µg/mL
MIC alone (C. difficile ATCC 43255 [5]; C. difficile ATCC 43255, Table 4): 1 µg/mL
MIC (C. difficile ATCC 43255 [5]; Clostridioides difficile, ATCC43255, C. difficile ATCC 43255, Table 3, read-out: MIC alone): 1 µg/mL
Interpretation (C. difficile ATCC 43255 [5]; [8]): SYN (ΣFIC index ≤0.5 is considered synergistic (SYN))
ΣFIC Index (C. difficile ATCC 43255 [5]; [8]): 0.375
Interpretation (C. difficile ATCC 43255 [5]; [9]): SYN (ΣFIC index ≤0.5 is considered synergistic (SYN))
ΣFIC Index (C. difficile ATCC 43255 [5]; [9]): 0.25
MIC of DIHQ combined with metronidazole ([6]; C. difficile ATCC BAA-1870): 0.125 µg/mL
MIC of DIHQ combined with vancomycin ([6]; C. difficile ATCC BAA-1870): 0.06 µg/mL
MIC alone ([6]; C. difficile ATCC BAA-1870, Table 4): 1 µg/mL
MIC ([6]; Clostridioides difficile, ATCCBAA1870, C. difficile ATCC BAA-1870, Table 3, read-out: MIC alone): 1 µg/mL
Interpretation [6, 10]: SYN (ΣFIC index ≤0.5 is considered synergistic (SYN))
ΣFIC Index [6, 10]: 0.25
Interpretation [6, 11]: SYN (ΣFIC index ≤0.5 is considered synergistic (SYN))
ΣFIC Index [6, 11]: 0.185
MIC of DIHQ combined with metronidazole (C. difficile I9 [7]; C. difficile I9): 0.06 µg/mL
MIC of DIHQ combined with vancomycin (C. difficile I9 [7]; C. difficile I9): 0.06 µg/mL
MIC alone (C. difficile I9 [7]; C. difficile I9, Table 4): 0.06 µg/mL
MIC (C. difficile I9 [7]; Clostridioides difficile, C. difficile I9, Table 3, read-out: MIC alone): 0.06 µg/mL
Interpretation (C. difficile I9 [7]; [12]): ADD (ΣFIC index >0.5 − 1.25 is considered additive (ADD))
ΣFIC Index (C. difficile I9 [7]; [12]): 1.125
Interpretation (C. difficile I9 [7]; [13]): ADD (ΣFIC index >0.5 − 1.25 is considered additive (ADD))
ΣFIC Index (C. difficile I9 [7]; [13]): 1.125
